Results on 29 compounds are retold here after ChEMBL document CHEMBL2163248, “Classification of inhibitors of hepatic organic anion transporting polypeptides (OATPs): influence of protein expression on drug-drug interactions” (J Med Chem, 2012).

Where a SMILES comes first, the peptide text is derived from it.

The target of data set [1] is T1, Solute carrier organic anion transporter family member 1B3 (Homo sapiens, UniProt Q9NPD5).
T1 sequence (Q9NPD5 whole entry): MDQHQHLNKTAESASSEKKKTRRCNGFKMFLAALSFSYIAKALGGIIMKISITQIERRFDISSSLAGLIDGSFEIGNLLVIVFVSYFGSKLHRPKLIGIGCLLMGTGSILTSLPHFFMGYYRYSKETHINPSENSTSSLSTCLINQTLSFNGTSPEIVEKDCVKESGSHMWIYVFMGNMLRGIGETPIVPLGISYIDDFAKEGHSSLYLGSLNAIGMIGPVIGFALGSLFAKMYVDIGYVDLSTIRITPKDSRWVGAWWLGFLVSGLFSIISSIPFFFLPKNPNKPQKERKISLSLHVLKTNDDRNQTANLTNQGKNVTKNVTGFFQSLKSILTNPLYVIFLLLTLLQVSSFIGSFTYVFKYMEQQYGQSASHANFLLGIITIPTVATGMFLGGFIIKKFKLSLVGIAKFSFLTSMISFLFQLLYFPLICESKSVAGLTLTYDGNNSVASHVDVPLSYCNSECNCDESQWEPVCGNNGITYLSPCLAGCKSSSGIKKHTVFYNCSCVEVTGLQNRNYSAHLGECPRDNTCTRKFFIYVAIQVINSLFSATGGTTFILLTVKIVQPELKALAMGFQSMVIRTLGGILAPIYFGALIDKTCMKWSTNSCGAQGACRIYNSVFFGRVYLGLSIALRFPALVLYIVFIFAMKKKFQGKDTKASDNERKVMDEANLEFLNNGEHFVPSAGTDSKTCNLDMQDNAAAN
As to the kind of experiment: Inhibition of human liver OATP1B3 expressed in HEK293 Flp-In cells assessed as reduction in [3H]E17-betaG uptake at 20 uM incubated for 5 mins by scintillation counting. Conditions: hek293, 5 min.

The target of data set [2] is T2, Solute carrier organic anion transporter family member 2B1 (Homo sapiens, UniProt O94956).
T2 sequence (O94956 whole entry): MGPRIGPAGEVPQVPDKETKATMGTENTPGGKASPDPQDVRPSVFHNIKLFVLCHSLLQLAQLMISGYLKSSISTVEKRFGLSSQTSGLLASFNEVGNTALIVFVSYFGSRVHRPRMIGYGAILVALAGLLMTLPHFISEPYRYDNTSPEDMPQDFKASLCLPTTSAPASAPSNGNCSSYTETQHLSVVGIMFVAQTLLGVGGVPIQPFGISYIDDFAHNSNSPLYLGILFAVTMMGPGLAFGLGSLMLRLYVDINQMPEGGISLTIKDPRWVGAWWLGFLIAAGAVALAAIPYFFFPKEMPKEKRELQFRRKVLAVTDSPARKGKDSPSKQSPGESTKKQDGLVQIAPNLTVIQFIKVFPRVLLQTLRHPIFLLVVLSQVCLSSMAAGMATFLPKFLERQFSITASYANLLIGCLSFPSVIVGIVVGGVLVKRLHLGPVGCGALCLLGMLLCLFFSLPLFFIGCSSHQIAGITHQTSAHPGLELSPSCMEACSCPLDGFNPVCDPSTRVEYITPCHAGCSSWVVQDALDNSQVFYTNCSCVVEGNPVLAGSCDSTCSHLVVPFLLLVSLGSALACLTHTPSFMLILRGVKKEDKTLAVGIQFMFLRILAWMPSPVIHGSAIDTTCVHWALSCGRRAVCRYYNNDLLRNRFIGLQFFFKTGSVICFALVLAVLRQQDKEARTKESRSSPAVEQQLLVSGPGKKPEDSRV
As to the kind of experiment: Inhibition of human liver OATP2B1 expressed in HEK293 Flp-In cells assessed as reduction in [3H]E3S uptake at 20 uM incubated for 5 mins by scintillation counting. Conditions: hek293, 5 min.

Data set [3] addresses T3, Solute carrier organic anion transporter family member 1B1 (Homo sapiens, UniProt Q9Y6L6).
T3 sequence (Q9Y6L6 whole entry): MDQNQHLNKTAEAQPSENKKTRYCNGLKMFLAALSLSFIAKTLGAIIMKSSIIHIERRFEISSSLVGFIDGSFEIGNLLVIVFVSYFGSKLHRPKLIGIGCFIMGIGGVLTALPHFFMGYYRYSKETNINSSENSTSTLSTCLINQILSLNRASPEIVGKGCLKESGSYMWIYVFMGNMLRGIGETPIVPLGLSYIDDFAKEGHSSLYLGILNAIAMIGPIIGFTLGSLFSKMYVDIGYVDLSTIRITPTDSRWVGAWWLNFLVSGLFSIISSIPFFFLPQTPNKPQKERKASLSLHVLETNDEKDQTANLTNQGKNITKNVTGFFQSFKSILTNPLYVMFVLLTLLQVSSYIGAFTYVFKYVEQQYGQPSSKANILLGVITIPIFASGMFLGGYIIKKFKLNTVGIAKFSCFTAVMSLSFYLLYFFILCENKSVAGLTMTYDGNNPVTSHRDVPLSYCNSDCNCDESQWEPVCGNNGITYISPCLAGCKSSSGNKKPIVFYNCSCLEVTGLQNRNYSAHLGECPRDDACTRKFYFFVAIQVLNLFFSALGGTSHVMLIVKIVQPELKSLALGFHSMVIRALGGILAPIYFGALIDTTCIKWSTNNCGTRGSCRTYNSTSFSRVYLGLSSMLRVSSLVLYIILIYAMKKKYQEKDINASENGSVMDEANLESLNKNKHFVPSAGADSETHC
The data set can be described thus: Inhibition of human liver OATP1B1 expressed in HEK293 Flp-In cells assessed as reduction in E17-betaG uptake at 20 uM by scintillation counting. The conditions noted are these: hek293, 20 µM.

Regarding `COc1ccnc(C[S+]([O-])c2nc3ccc(OC(F)F)cc3[nH]2)c1OC` (configuration not stated) [PANTOPRAZOLE], the INH in data set [1] is 23.4%; in data set [2], 17.3%; in data set [3], 15.2%.
Turning to `Cc1nnc2n1-c1ccc(Cl)cc1C(c1ccccc1Cl)=NC2` [TRIAZOLAM], the INH in data set [1] is given as 18.7%; in data set [2], -20.5%; in data set [3] it was 45.7%.
The like results for `OC(Cn1cncn1)(Cn1cncn1)c1ccc(F)cc1F` [FLUCONAZOLE] were, in that order, 7.5%, 34.1% and 7.4%.
In the case of `COc1cc2nc(N3CCN(C(=O)c4ccco4)CC3)nc(N)c2cc1OC` [PRAZOSIN], the values for the INH in data set [1], in data set [2] and in data set [3] were 36.1%, 1% and 25.1%, respectively.
Taken in the same sequence, the figures for `CC#C[C@]1(O)CC[C@H]2[C@@H]3CCC4=CC(=O)CCC4=C3[C@@H](c3ccc(N(C)C)cc3)C[C@@]21C` [MIFEPRISTONE] were 80.3%, 70.7% and 81.2%.
The like results for `CC1(C)C(/C=C/C=C/C=C/C=C2/N(CCCCS(=O)(=O)[O-])c3ccc4ccccc4c3C2(C)C)=[N+](CCCCS(=O)(=O)[O-])c2ccc3ccccc3c21.[Na+]` [INDOCYANINE GREEN] were, in that order, 100.1%, 79.2% and 86.1%.
As for `O=C(NCCN1CCOCC1)c1ccc(Cl)cc1` [MOCLOBEMIDE], the results for the INH in data set [1], in data set [2] and in data set [3] were -3.3%, 27.5% and 1.7%, respectively.
The like results for `CCc1ccc(CCOc2ccc(CC3SC(=O)NC3=O)cc2)nc1` (configuration not stated) [PIOGLITAZONE] were, in that order, 5.6%, -9.9% and 21.9%.
The like results for `NNC(=O)c1ccncc1` [ISONIAZID] were, in that order, 18.7%, 23.8% and 29.9%.
Consider `Cc1c(OCC(F)(F)F)ccnc1C[S+]([O-])c1nc2ccccc2[nH]1` (configuration not stated) [LANSOPRAZOLE], for which the INH is given as 23.3% in data set [1], -75.7% in data set [2] and 31.4% in data set [3].
For the compound `CC(=O)N1CCN(c2ccc(OCC3COC(Cn4ccnc4)(c4ccc(Cl)cc4Cl)O3)cc2)CC1` (configuration not stated) [KETOCONAZOLE], the INH in data set [1] stood at 24.7%; in data set [2] it was 44%; in data set [3], 53.6%.
In the case of `C=C[C@H]1C[N+]2(C)CC[C@H]1C[C@@H]2[C@@H](O)c1ccnc2ccc(OC)cc12`, the INH is reported as 21% in data set [1], -10.3% in data set [2] and -6.1% in data set [3].
As to `CC(=O)[C@H]1CC[C@H]2[C@@H]3CCC4=CC(=O)CC[C@]4(C)[C@H]3CC[C@]12C` [PROGESTERONE], the INH in data set [1] was 33.4%; in data set [2] it was -362.6%; in data set [3] it was 63.9%.
`CCC(C)n1ncn(-c2ccc(N3CCN(c4ccc(OCC5COC(Cn6cncn6)(c6ccc(Cl)cc6Cl)O5)cc4)CC3)cc2)c1=O` (configuration not stated) [ITRACONAZOLE]: the INH in data set [1] was -2.3%; in data set [2], 59.8%; in data set [3], 22.3%.
Turning to `c1cnc2cc3c(cc2n1)[C@@H]1CNC[C@H]3C1` [VARENICLINE], the INH in data set [1] amounted to 0.8%; in data set [2], 27.3%; in data set [3], 24.7%.
The like results for `Nc1nnc(-c2cccc(Cl)c2Cl)c(N)n1` [LAMOTRIGINE] were, in that order, 14.5%, 13.6% and 24.9%.
As for `CN(C)[C@@H]1C(O)=C(C(N)=O)C(=O)[C@@]2(O)C(O)=C3C(=O)c4c(O)cccc4[C@@](C)(O)[C@H]3C[C@@H]12` [TETRACYCLINE], the figures for the INH in data set [1], in data set [2] and in data set [3] were 29.5%, 51.1% and 22.1%, respectively.
Taken in the same sequence, the figures for `C[C@H](CCC(=O)NCCS(=O)(=O)O)[C@H]1CC[C@H]2[C@@H]3[C@H](O)C[C@@H]4C[C@H](O)CC[C@]4(C)[C@H]3CC[C@]12C` [TAUROCHENODEOXYCHOLATE] were 82.4%, 47.2% and 89.5%.
The like results for `O=C1c2c(O)ccc(O)c2C(=O)c2c(NCCNCCO)ccc(NCCNCCO)c21` [MITOXANTRONE] were, in that order, 67.9%, 48.3% and 27.2%.
Taken in the same sequence, the figures for `COc1ccc([C@@H]2Sc3ccccc3N(CCN(C)C)C(=O)[C@@H]2OC(C)=O)cc1` [DILTIAZEM] were 4.1%, -9.1% and 3.2%.
In the case of `CC(C)c1nc(N(C)S(C)(=O)=O)nc(-c2ccc(F)cc2)c1/C=C/[C@@H](O)C[C@@H](O)CC(=O)O` [ROSUVASTATIN], the INH was determined as 55.4% in data set [1], 51.2% in data set [2] and 71.4% in data set [3].
Consider `COc1cc2c(cc1OC)CN(CCc1ccc(NC(=O)c3cccc4c(=O)c5cccc(OC)c5[nH]c34)cc1)CC2`, for which the results for the INH in data set [1], in data set [2] and in data set [3] were 37.4%, 67.2% and 94.4%, respectively.
Taken in the same sequence, the figures for `CN(CCOc1ccc(CC2SC(=O)NC2=O)cc1)c1ccccn1` (configuration not stated) [ROSIGLITAZONE] were -32.1%, 10% and 79.1%.
The like results for `NCC(=O)N1CCC[C@H]1C(=O)O` [GLYCYL PROLINE] (H-Gly-Pro-OH) were, in that order, 9.6%, 24.1% and -8.4%.
FLUPENTIXOL: the INH is on record as 13.5% in data set [1], 9.5% in data set [2] and 30.2% in data set [3].
The like results for `CN(C)CCC=C1c2ccccc2CCc2ccccc21` [AMITRIPTYLINE] were, in that order, 22%, -8.9% and 10.5%.
Taken in the same sequence, the figures for `CC(NC(C)(C)C)C(=O)c1cccc(Cl)c1` (configuration not stated) [BUPROPION] were 7.2%, 17% and 8.5%.
On to `CN[C@@H]1C[C@H](N)[C@@H](O)[C@H](O[C@H]2O[C@H](CO)[C@H](O)[C@@H]3O[C@@]4(O[C@@H]23)O[C@H]([C@H](N)CO)[C@H](O)[C@H](O)[C@H]4O)[C@H]1O` [HYGROMYCIN], for which the figures for the INH in data set [1], in data set [2] and in data set [3] were -4.2%, 31.5% and 32.8%, respectively.
Taken in the same sequence, the figures for `CC(C)[C@H](N)C(=O)OCCOCn1cnc2c(=O)[nH]c(N)nc21` [VALACYCLOVIR] were 6.6%, -7.3% and 8.3%.
